Assay results from patent US8193189B2, “Quinoxaline derivatives as tyrosine kinase activity inhibitors” (Novartis AG, priority 2007, dated 2012).

How the values were obtained:
[1] = molecular target: T1, GST-JAK3(811-1124) (Homo sapiens, UniProt P52333); experiment: EPK JAK-family kinases profiling assay (Caliper mobility shift), JAK3; type: biochemical; conditions: ATP 80 μM, 6 nM kinase
T1 construct: GST-JAK3(811-1124); made in house
Description: (§1) All four kinases of the JAK-family kinases were used as purified recombinant GST-fusion proteins, containing the active kinase domains. GST-JAK1(866-1154), GST-JAK3(811-1124), and GST-TYK2(888-1187) were expressed and purified by affinity chromatography at the EPK biology unit. GST-JAK2(808-1132) was purchased from Invitrogen (Carlsbad, USA, #4288).
(§2) The kinase assays were based on the Caliper mobility shift assay using the LabChip 3000 systems. This technology is similar to capillary electrophoresis and uses charge driven separation of substrate and product in a microfluidic chip.
(§3) All kinase reactions were performed in 384 well microtiter plates in a total reaction volume of 18 μl. The assay plates were prepared with 0.1 μl per well of test compound in the appropriate test concentration, as described under the section “preparation of compound dilutions”. The reactions were started by combining 9 μl of substrate mix (consisting of peptide and ATP) with 9 μl of kinase dilution. The reactions were incubated for 60 minutes at 30° C. and stopped by adding 70 μl of stop buffer (100 mM Hepes, 5% DMSO, 0.1% Coating reagent, 10 mM EDTA, 0.015% Brij 35).
(§4) Fluorescently labeled synthetic peptides were used as substrates in all reactions. […] Specific assay conditions are described in Table 1:
(§5) The terminated reactions were transferred to the Caliper LabChip 3000 reader and the turnover of each reaction was measured by determining the substrate/product ratio.
(§6) Test compounds were dissolved in DMSO (10 mM) and transferred into 1.4 mL flat bottom or V-shaped Matrix tubes carrying a unique 2D matrix chip by individual compound hubs. The numbers of these chips were distinctively linked to the individual compound identification numbers. The stock solutions were stored at −20° C. if not used immediately. For the test procedure the vials were defrosted and identified by a scanner whereby a working sheet was generated that guided the subsequent working steps.
(§7) Compound dilutions were made in 96 well plates. This format enabled the assay of maximally 40 individual test compounds at 8 concentrations (single points) including 4 reference compounds. The dilution protocol included the production of pre-dilution plates, master plates and assay plates:
(§8) Pre-dilution plates: 96 polypropylene well plates were used as pre-dilution plates. A total of 4 pre-dilution plates were prepared including 10 test compounds each on the plate positions A1-A10, one standard compound at A11 and one DMSO control at A12. All dilution steps were done on a HamiltonSTAR robot.
(§9) Master plates: 100 μL of individual compound dilutions including standard compound and controls of the 4 “pre-dilution plates” were transferred into a 384 “master plate” including the following concentrations 1′820, 564, 182, 54.6, 18.2, 5.46, 1.82 and 0.546 μM, respectively in 90% of DMSO.
(§10) Assay plates: Identical assay plates were then prepared by pipetting 100 nL each of compound dilutions of the master plates into 384-well “assay plates”. […] The preparation of the master plates were handled by the Matrix PlateMate Plus robot and replication of assay plates by the HummingBird robot.

[2] = molecular target: T2, GST-JAK1(866-1154) (Homo sapiens, UniProt P23458); experiment: EPK JAK-family kinases profiling assay (Caliper mobility shift), JAK1; type: biochemical; conditions: ATP 40 μM, 50 nM kinase
T2 construct: GST-JAK1(866-1154); made in house
T2 sequence (P23458 866-1154): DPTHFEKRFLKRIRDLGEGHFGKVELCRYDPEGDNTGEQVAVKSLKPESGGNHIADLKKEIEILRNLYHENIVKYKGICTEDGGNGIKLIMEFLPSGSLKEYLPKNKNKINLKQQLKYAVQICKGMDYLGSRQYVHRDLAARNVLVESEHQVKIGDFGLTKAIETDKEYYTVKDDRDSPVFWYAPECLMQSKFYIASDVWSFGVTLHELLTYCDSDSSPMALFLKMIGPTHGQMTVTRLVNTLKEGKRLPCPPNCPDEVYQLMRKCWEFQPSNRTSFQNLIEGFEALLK
Description: as §1, §2, §3, §4, §5, §6, §7, §8, §9, §10

[3] = molecular target: T3, GST-JAK2(808-1132) (Homo sapiens, UniProt O60674); experiment: EPK JAK-family kinases profiling assay (Caliper mobility shift), JAK2; type: biochemical; conditions: ATP 20 μM, 1.8 nM kinase
T3 construct: GST-JAK2(808-1132); purchased Invitrogen (Carlsbad, USA) #4288
T3 sequence (O60674 808-1132): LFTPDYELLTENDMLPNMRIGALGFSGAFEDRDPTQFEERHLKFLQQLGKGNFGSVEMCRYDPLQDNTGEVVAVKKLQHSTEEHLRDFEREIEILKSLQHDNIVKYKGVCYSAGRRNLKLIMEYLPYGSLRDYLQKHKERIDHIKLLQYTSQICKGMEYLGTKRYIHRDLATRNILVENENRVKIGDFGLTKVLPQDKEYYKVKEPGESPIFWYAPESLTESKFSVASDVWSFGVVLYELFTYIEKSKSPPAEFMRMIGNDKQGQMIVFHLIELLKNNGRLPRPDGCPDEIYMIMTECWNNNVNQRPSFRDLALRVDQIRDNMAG
Description: as §1, §2, §3, §4, §5, §6, §7, §8, §9, §10

[4] = test system: JAK/STAT pathway (JAK1/JAK2-dependent nuclear translocation of STAT1-GFP); experiment: Inhibition of the JAK/STAT pathway: IFN-γ stimulated nuclear translocation of STAT1-GFP in HT1080 fibrosarcoma cells; type: cell-based; conditions: Homo sapiens, HT-1080; HT1080 STAT1-GFP cells, 100 ng/ml IFN-γ 2 hours, compound added 30 min before; read-out: STAT1translo IC50
Description: The medium-throughput (96-well format), robust and reproducible cellular assay can be routinely used to assess the functional activation of Janus Kinases (JAKs), based on the nuclear translocation of their substrate, Signal Transducer and Activator of Transcription (STAT). Nuclear translocation can be monitored in HT1080 fibrosarcoma cells stably transfected with STAT1 fused to Green Fluorescence Protein (GFP). Stimulation with interferon-γ (IFN-γ) results in JAK1/JAK2-dependent nuclear translocation of STAT1-GFP that can be quantified using the Cellomics Cyto/NucTrans software package. This assay may be used to provide an assessment of the nuclear-cytoplasmic differential (NCD) of GFP-STAT1 using Hoechst dye to define the boundaries of the nucleus.
Compounds can be dissolved in DMSO to a final stock concentration of 10 mM and stored as aliquots at 4° C. Compounds may be pre-diluted in 100% DMSO at 10 mM, 3 mM 1 mM, 0.3 mM, 0.1 mM, 0.03 mM, 0.01 mM and 0.003 mM. Subsequently, compounds may be diluted in medium and added in 50 μl to the cells. The final compound concentrations tested may be 10 μM, 3 μM 1 μM, 0.3 μM, 0.1 μM, 0.03 μM, 0.01 μM and 0.003 μM and the final DMSO concentration can be 0.1%.
The plates may then be washed once in PBS, and 200 μl PBS finally added per well. The plates, being finally covered with a black adhesive, may be either read directly or stored at 4° C. for later imaging. Where appropriate, the compounds may be added 30 min before stimulation with IFN-γ.
The plates can be read on a Cellomics® ArrayscanII automated fluorescence microscope plate reader equipped with a Mercury-Xenon white light illumination source and a Zeiss Axiovert inverted microscope, using the XF100 dichroic/emission filter cube and matching excitation filters, 10× magnification, and a 0.3 numerical aperture objective. Image acquisition and analysis can be performed using a customized protocol based on the ‘NuclearTranslocation’ Bioapplication (for details, see Appendices). For each well, multiple images (fields) can be acquired until a minimum of 1000 cells are counted using two 2 channels: Channel 1 (Hoechst)=focus+nuclear mask, Channel 2 (GFP)=signal quantification in mask areas as outlined below.
Nuclei may be first identified based on the Hoechst staining and a mask generated for each nucleus that then serves as a template to generate a circle (eroded inwards by 1 pixel) and a 3 pixel-wide collar-like ring (off-set outwards by 1 pixel), in which the nuclear and cytoplasmic intensity of GFP, respectively, are quantified in the corresponding channel. High content analysis yields numerous measurements per cell and the GPF intensity differential between the nuclear and the cytoplasmic masks may be chosen as a measure of sub-cellular GFP-STAT1 relocation. The resulting values may be averaged for all cells in the well to return a single measurement plus standard deviation.

T1 sequence (P52333 811-1124): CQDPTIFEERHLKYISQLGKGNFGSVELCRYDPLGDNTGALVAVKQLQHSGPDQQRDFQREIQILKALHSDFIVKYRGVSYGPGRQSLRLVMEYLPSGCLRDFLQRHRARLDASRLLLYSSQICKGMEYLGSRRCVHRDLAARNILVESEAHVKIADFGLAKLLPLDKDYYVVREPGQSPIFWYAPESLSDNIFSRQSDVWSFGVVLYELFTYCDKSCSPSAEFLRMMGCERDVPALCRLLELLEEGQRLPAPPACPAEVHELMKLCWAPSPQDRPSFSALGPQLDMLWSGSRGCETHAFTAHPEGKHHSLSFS

Row | IC50 [1] | IC50 [2] | IC50 [3] | IC50 [4] | Structure (SMILES)
1 | 2300 nM | 230 nM | 38 nM | 340 nM | COc1cc(-c2cnc3cccc(-c4ccc(C(=O)N5CCOCC5)c(Cl)c4)c3n2)cc(OC)c1OC [Example 18, {2-Chloro-4-[3-(3,4,5-trimethoxy-phenyl)-quinoxalin-5-yl]-phenyl}-morpholin-4-yl-methanone]
2 | 2700 nM | 570 nM | 84 nM | 7790 nM | CCOc1ccc(-c2cnc3cccc(-c4ccc(CN5CCS(=O)(=O)CC5)c(C)c4)c3n2)cc1OCC [Example 32, 2-(3,4-Diethoxy-phenyl)-8-[4-(1,1-dioxido-thiomorpholin-4-ylmethyl)-3-methyl-phenyl]-quinoxaline]
3 | 940 nM | 41 nM | 17 nM | 3860 nM | COc1cc(-c2cnc3cccc(-c4ccc(NS(C)(=O)=O)cc4)c3n2)ccc1OCCN1CCOCC1 [Example 36, N-(4-{3-[3-Methoxy-4-(2-morpholin-4-yl-ethoxy)-phenyl]-quinoxalin-5-yl}-phenyl)-methanesulfonamide]
4 | 780 nM | 68 nM | 14 nM | 3080 nM | COc1cc(-c2cnc3cccc(-c4ccc(CS(C)(=O)=O)cc4)c3n2)ccc1OCCN1CCOCC1 [Example 37, 8-(4-Methanesulfonylmethyl-phenyl)-2-[3-methoxy-4-(2-morpholin-4-yl-ethoxy)-phenyl]-quinoxaline]
5 | 640 nM | 130 nM | 6.3 nM | 346 nM | Cc1cc(-c2cnc3cccc(-c4ccc(CC(=O)N5CCOCC5)cc4)c3n2)ccc1C(=O)N1CCN(C)CC1 [Example 41, 2-(4-{3-[3-Methyl-4-(4-methyl-piperazine-1-carbonyl)-phenyl]-quinoxalin-5-yl}-phenyl)-1-morpholin-4-yl-ethanone]
6 | 2200 nM | 190 nM | 30 nM | 2400 nM | O=C(Cc1ccc(-c2cccc3ncc(-c4ccc(N5CCOCC5)cc4)nc23)cc1)N1CCOCC1 [Example 45, 1-Morpholin-4-yl-2-{4-[3-(4-morpholin-4-yl-phenyl)-quinoxalin-5-yl]-phenyl}-ethanone]
7 | 1600 nM | 110 nM | 20 nM | 2820 nM | Cc1cc(-c2cccc3ncc(-c4ccc(N5CCOCC5)cc4)nc23)ccc1C(=O)N1CCOCC1 [Example 46, {2-Methyl-4-[3-(4-morpholin-4-yl-phenyl)-quinoxalin-5-yl]-phenyl}-morpholin-4-yl-methanone]
8 | 77 nM | 9.9 nM | < 3 nM | 150 nM | COCCOc1ccc(-c2cnc3cccc(-c4ccc(CN5CCS(=O)(=O)CC5)c(F)c4)c3n2)cc1OC [Example 48, 8-[4-(1,1-Dioxido-thiomorpholin-4-ylmethyl)-3-fluoro-phenyl]-2-[3-methoxy-4-(2-methoxy-ethoxy)-phenyl]-quinoxaline]
9 | 4400 nM | 260 nM | 38 nM | 1220 nM | COCCOc1ccc(-c2cnc3cccc(-c4ccc(CC(=O)N5CCOCC5)c(F)c4)c3n2)cc1OC [Example 49, 2-(2-Fluoro-4-{3-[3-methoxy-4-(2-methoxy-ethoxy)-phenyl]-quinoxalin-5-yl}-phenyl)-1-morpholin-4-yl-ethanone]
10 | 65 nM | 17 nM | < 3 nM | 140 nM | Cc1cc(-c2cnc3cccc(-c4ccc(CN5CCS(=O)(=O)CC5)c(F)c4)c3n2)ccc1C(=O)N(C)C [Example 54, 4-{8-[4-(1,1-Dioxido-thiomorpholin-4-ylmethyl)-3-fluoro-phenyl]-quinoxalin-2-yl}-2,N,N-trimethyl-benzamide]
11 | 4200 nM | 1700 nM | 90 nM | 3140 nM | Cc1cc(-c2cnc3cccc(-c4ccc(CN5CCOCC5)c(C(F)(F)F)c4)c3n2)ccc1C(=O)N(C)C [Example 55, 2,N,N-Trimethyl-4-[8-(4-morpholin-4-ylmethyl-3-trifluoromethyl-phenyl)-quinoxalin-2-yl]-benzamide]
12 | 570 nM | 150 nM | 12 nM | 471 nM | Cc1cc(-c2cnc3cccc(-c4ccc(CN5CCOCC5)c(F)c4)c3n2)ccc1C(=O)N(C)C [Example 56, 4-[8-(3-Fluoro-4-morpholin-4-ylmethyl-phenyl)-quinoxalin-2-yl]-2,N,N-trimethyl-benzamide]
13 | 170 nM | 80 nM | < 3 nM | 163 nM | Cc1cc(-c2cccc3ncc(-c4ccc(C(=O)N5CCOCC5)c(C)c4)nc23)ccc1CN1CCS(=O)(=O)CC1 [Example 57, (4-{8-[4-(1,1-Dioxido-thiomorpholin-4-ylmethyl)-3-methyl-phenyl]-quinoxalin-2-yl}-2-methyl-phenyl)-morpholin-4-yl-methanone]

Row | Structure (SMILES) | IC50 [1] | IC50 [2] | IC50 [3] | IC50 [4]
14 | Cc1cc(-c2cnc3cccc(-c4ccc(CN5CCS(=O)(=O)CC5)cc4)c3n2)ccc1C(=O)N1CCN(C)CC1 [Example 40, (4-{8-[4-(1,1-Dioxido-thiomorpholin-4-ylmethyl)-phenyl]-quinoxalin-2-yl}-2-methyl-phenyl)-(4-methyl-piperazin-1-yl)-methanone] | 627 nM | 78.4 nM | 7.3 nM | 160 nM
15 | Cc1cc(-c2cccc3ncc(-c4ccc(C(=O)N5CCOCC5)c(C)c4)nc23)ccc1CN1CCOCC1 [Example 60, {2-Methyl-4-[8-(3-methyl-4-morpholin-4-ylmethyl-phenyl)-quinoxalin-2-yl]-phenyl}-morpholin-4-yl-methanone] | 3800 nM | 1600 nM | – | 4750 nM
